Results as given in patent publication US10981894B2, “Melanocortin subtype-2 receptor (MC2R) antagonists and uses thereof” (Crinetics Pharmaceuticals, Inc., priority 2018, dated 2021).

Target: hMC2 receptor (Homo sapiens, UniProt Q01718)
Assay: hMC2 membrane binding assay ([125I]ACTH (1-39) Tyr23, SPA)
Parameters: scale not given here
Conditions: crude hMC2R membranes from CRE-bla-CHO-K1 cells expressing hMC2 receptor and hMRAP; [125I]ACTH (1-39) Tyr23 0.2 nM; 1.5 hours at room temperature; read-out: MC2R binding potency
How it was run: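 CRE-bla-CHO-K1 membranes co-expressing hMC2 receptor and hMRAP, preincubated with WGA PVT SPA beads in pH 7.4 HEPES/MgCl2/CaCl2/0.2% BSA buffer. Compounds (typically 0–10,000 nM final) compete with 0.2 nM [125I]ACTH(1-39) Tyr23 for 1.5 h at room temperature. SPA counts give Ki by non-linear regression.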

Sequence of hMC2 receptor (Q01718 whole entry): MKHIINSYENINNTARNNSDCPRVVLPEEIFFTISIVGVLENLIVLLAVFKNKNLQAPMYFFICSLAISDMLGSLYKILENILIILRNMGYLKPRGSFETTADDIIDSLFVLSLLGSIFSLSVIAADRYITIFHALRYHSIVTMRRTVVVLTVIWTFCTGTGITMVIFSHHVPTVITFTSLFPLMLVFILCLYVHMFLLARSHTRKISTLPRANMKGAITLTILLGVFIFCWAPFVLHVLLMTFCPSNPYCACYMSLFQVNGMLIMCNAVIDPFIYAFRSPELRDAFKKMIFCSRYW
Sequence of hMC2 receptor (Q8TCY5 whole entry partner): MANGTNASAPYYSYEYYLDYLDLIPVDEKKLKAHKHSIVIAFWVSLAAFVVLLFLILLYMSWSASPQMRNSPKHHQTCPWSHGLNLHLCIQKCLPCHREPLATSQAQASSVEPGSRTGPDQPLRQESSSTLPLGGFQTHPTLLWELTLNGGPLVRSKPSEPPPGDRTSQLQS

CCOc1ncccc1-c1ccc(N2CCN(C(=O)OC3(CC)CCCC3)C[C@H]2CC)c(C(=O)N[C@@H]2CCN(C)C2)n1 [Compound 1-397, 1-ethylcyclopentyl (3R)-4-(2′-ethoxy-6-{[(3R)-1-methylpyrrolidin-3-yl]carbamoyl}-[2,3′-bipyridin]-5-yl)-3-ethylpiperazine-1-carboxylate]
Ki: < 10 nM

CCOc1ncccc1-c1ccc(N2CCN(C(=O)c3ccc(Cl)cc3C(F)(F)F)C[C@H]2CC)c(C(=O)N[C@@H]2CN3CCC2CC3)n1 [Compound 1-398, N-[(3S)-1-azabicyclo[2.2.2]octan-3-yl]-5-[(2R)-4-[4-chloro-2-(trifluoromethyl)benzoyl]-2-ethylpiperazin-1-yl]-2′-ethoxy-[2,3′-bipyridine]-6-carboxamide]
Ki: < 10 nM

CCOc1ccccc1-c1ccc(N2CCN(C(=O)C3(C(F)(F)F)CCCC3)C[C@H]2CC)c(C(=O)NC2CN(C)C2)n1 [Compound 1-399, 6-(2-ethoxyphenyl)-3-[(2R)-2-ethyl-4-[1-(trifluoromethyl)cyclopentanecarbonyl]piperazin-1-yl]-N-(1-methylazetidin-3-yl)pyridine-2-carboxamide]
Ki: < 10 nM

CCOc1ncccc1-c1ccc(N2CCN(C(=O)C3(C(F)(F)F)CCCC3)C[C@H]2CC)c(C(=O)N[C@@H]2CN3CCC2CC3)n1 [Compound 1-400, N-[(3S)-1-azabicyclo[2.2.2]octan-3-yl]-2′-ethoxy-5-[(2R)-2-ethyl-4-[1-(trifluoromethyl)cyclopentanecarbonyl]piperazin-1-yl]-[2,3′-bipyridine]-6-carboxamide]
Ki: < 10 nM

CCOc1ccccc1-c1ccc(N2CCN(C(=O)C3(C(F)(F)F)CCCC3)C[C@H]2CC)c(C(=O)N[C@H]2CCN(C)C2)n1 [Compound 1-401, 6-(2-ethoxyphenyl)-3-[(2R)-2-ethyl-4-[1-(trifluoromethyl)cyclopentanecarbonyl]piperazin-1-yl]-N-[(3S)-1-methylpyrrolidin-3-yl]pyridine-2-carboxamide]
Ki: < 10 nM

CCOc1ccccc1-c1ccc(N2CCN(C(=O)N3CCc4cccc(C(F)(F)F)c43)C[C@H]2CC)c(C(=O)N[C@H]2CCN(C)C2)n1 [Compound 1-402, 6-(2-ethoxyphenyl)-3-[(2R)-2-ethyl-4-[7-(trifluoromethyl)-2,3-dihydro-1H-indole-1-carbonyl]piperazin-1-yl]-N-[(3S)-1-methylpyrrolidin-3-yl]pyridine-2-carboxamide]
Ki: < 10 nM

CCOc1ncccc1-c1ccc(N2CCN(C(=O)O[C@@H](C(C)(C)C)C(F)(F)F)C[C@H]2CC)c(C(=O)N[C@@H]2CN3CCC2CC3)n1 [Compound 1-403, (2S)-1,1,1-trifluoro-3,3-dimethylbutan-2-yl (3R)-4-(6-{[(3S)-1-azabicyclo[2.2.2]octan-3-yl]carbamoyl}-2′-ethoxy-[2,3′-bipyridin]-5-yl)-3-ethylpiperazine-1-carboxylate; or (2R)-1,1,1-trifluoro-3,3-dimethylbutan-2-yl (3R)-4-(6-{[(3S)-1-azabicyclo[2.2.2]octan-3-yl]carbamoyl}-2′-ethoxy-[2,3′-bipyridin]-5-yl)-3-ethylpiperazine-1-carboxylate]
Ki: < 10 nM

CCOc1ncccc1-c1ccc(N2CCN(C(=O)N3CCc4cccc(C#N)c43)C[C@H]2CC)c(C(=O)N[C@H]2CCN(C)C2)n1 [Compound 1-404, 5-[(2R)-4-(7-cyano-2,3-dihydro-1H-indole-1-carbonyl)-2-ethylpiperazin-1-yl]-2′-ethoxy-N-[(3S)-1-methylpyrrolidin-3-yl]-[2,3′-bipyridine]-6-carboxamide]
Ki: < 10 nM

CCOc1ncccc1-c1ccc(N2CCN(C(=O)C3(C(F)(F)F)CCCC3)C[C@H]2CC)c(C(=O)NC23CCN(CC2)C3)n1 [Compound 1-405, N-{1-azabicyclo[2.2.1]heptan-4-yl}-2′-ethoxy-5-[(2R)-2-ethyl-4-[1-(trifluoromethyl)cyclopentanecarbonyl]piperazin-1-yl]-[2,3′-bipyridine]-6-carboxamide]
Ki: < 10 nM

CCOc1ncccc1-c1ccc(N2CCN(C(=O)OC(c3ccccc3)C(C)(C)C)C[C@H]2CC)c(C(=O)N[C@@H]2CCN(C)C2)n1 (stereo partly drawn) [Compound 1-408, 2,2-dimethyl-1-phenylpropyl (3R)-4-(2′-ethoxy-6-{[(3R)-1-methylpyrrolidin-3-yl]carbamoyl}-[2,3′-bipyridin]-5-yl)-3-ethylpiperazine-1-carboxylate]
Ki: < 10 nM

CCOc1ncccc1-c1ccc(N2CCN(C(=O)N3CCc4cccc(C#N)c43)C[C@H]2CC)c(C(=O)NC2CN(C)C2)n1 [Compound 1-409, 5-[(2R)-4-(7-cyano-2,3-dihydro-1H-indole-1-carbonyl)-2-ethylpiperazin-1-yl]-2′-ethoxy-N-(1-methylazetidin-3-yl)-[2,3′-bipyridine]-6-carboxamide]
Ki: < 10 nM

CCOc1ccccc1-c1ccc(N2CCN(C(=O)C3(C(F)(F)F)CCC3)C[C@H]2CC)c(C(=O)N[C@@H]2CN3CCC2CC3)n1 [Compound 1-410, N-[(3S)-1-azabicyclo[2.2.2]octan-3-yl]-6-(2-ethoxyphenyl)-3-[(2R)-2-ethyl-4-[1-(trifluoromethyl)cyclobutanecarbonyl]piperazin-1-yl]pyridine-2-carboxamide]
Ki: < 10 nM

CCOc1ncccc1-c1ccc(N2CCN(C(=O)C3(C(F)(F)F)CCC3)C[C@H]2CC)c(C(=O)N[C@@H]2CN3CCC2CC3)n1 [Compound 1-411, N-[(3S)-1-azabicyclo[2.2.2]octan-3-yl]-2′-ethoxy-5-[(2R)-2-ethyl-4-[1-(trifluoromethyl)cyclobutanecarbonyl]piperazin-1-yl]-[2,3′-bipyridine]-6-carboxamide]
Ki: < 10 nM

CCOc1ccccc1-c1ccc(N2CCN(C(=O)N3CCC[C@H]3C(C)(C)F)C[C@H]2CC)c(C(=O)N[C@@H]2CCN(C)C2)n1 [Compound 1-412, 6-(2-ethoxyphenyl)-3-[(2R)-2-ethyl-4-[(2S)-2-(2-fluoropropan-2-yl)pyrrolidine-1-carbonyl]piperazin-1-yl]-N-[(3R)-1-methylpyrrolidin-3-yl]pyridine-2-carboxamide]
Ki: < 10 nM

CCOc1ncccc1-c1ccc(N2CCN(C(=O)N3CCC[C@H]3C(C)(C)F)C[C@H]2CC)c(C(=O)N[C@@H]2CCN(C)C2)n1 [Compound 1-413, 2′-ethoxy-5-[(2R)-2-ethyl-4-[(2S)-2-(2-fluoropropan-2-yl)pyrrolidine-1-carbonyl]piperazin-1-yl]-N-[(3R)-1-methylpyrrolidin-3-yl]-[2,3′-bipyridine]-6-carboxamide]
Ki: < 10 nM

CCOc1ccccc1-c1ccc(N2CCN(C(=O)N3CCc4cccc(C#N)c43)C[C@H]2CC)c(C(=O)NC2CN(C)C2)n1 [Compound 1-414, 3-[(2R)-4-(7-cyano-2,3-dihydro-1H-indole-1-carbonyl)-2-ethylpiperazin-1-yl]-6-(2-ethoxyphenyl)-N-(1-methylazetidin-3-yl)pyridine-2-carboxamide]
Ki: < 10 nM

CCOc1ncccc1-c1ccc(N2CCN(C(=O)C3(C(F)(F)F)CCCC3)C[C@H]2CC)c(C(=O)NCC2=NCCN2C)n1 [Compound 1-415, 2′-ethoxy-5-[(2R)-2-ethyl-4-[1-(trifluoromethyl)cyclopentanecarbonyl]piperazin-1-yl]-N-[(1-methyl-4,5-dihydro-1H-imidazol-2-yl)methyl]-[2,3′-bipyridine]-6-carboxamide]
Ki: < 10 nM
